pIC50: −log10 of the molar value. Some results are limits rather than exact numbers.

Drawing on patent US5731344A, “Bishispidine compounds, processes for their production and pharmaceutical agents containing these compounds” (Boehringer Mannheim GmbH, priority 1993, dated 1998), this text covers IC50 and Threshold concentration for eight compounds.

The assay has as its system Lysozyme. The experiment in a line: Test for the inhibitory activity on the formation of AGE (lysozyme dimer formation, SDS gel electrophoresis, densitometry). Type of assay: biochemical. Particulars: AGE-inhibitory action, lysozyme 20 mg/ml, pH 7.4, 200 mmol/l glucose or xylose, 24 to 120 hours. Here is the method:
Test for the inhibitory activity on the formation of AGE
Lysozyme is dissolved at a final concentration of 20 mg/ml in 100 mmol/l potassium phosphate buffer, pH 7.4. 5 mmol/l sodium azide is added as a preservative. The formation of AGE is initiated by the addition of 200 mmol/l glucose or xylose. Test substances or the reference substance aminoguanidine are added at different concentrations in order to quantify an inhibitory activity on AGE formation. Solvent controls as well as control mixes are also run in the presence of 200 mmol/l sorbitol or xylite for correction purposes. The incubation period of the reaction mixtures is between 24 and 120 hours depending on the sugar used and is selected in such a way that mainly dimers are formed and other higher molecular oligomerization products are formed only to a slight extent.
The samples are prepared and SDS gel electrophoresis is carried out according to literature references. Summarized briefly the samples are diluted with the 4-fold amount of sample buffer (50 mmol/l Tris^* acetate, pH 7.5, 1% SDS, 5 mmol/l dithiothreitol) and heated for 3 minutes to 95° C. Aliquots are applied to 8-18% gradient-SDS gels. In order to determine the molecular weight molecular weight markers are also used in the range 14-340 kD. The separation according to molecular weight is achieved under the following operating conditions: voltage: 600 V, current intensity: 50 mA, power: 30 W, run period: ~60 minutes.
After the gel electrophoresis the gels are fixed according to standard methods and stained with Coomassie Blue. After destaining overnight and drying, the gels are measured densitometrically (Pharmacia Ultra Scan XL using GelScan XL software).
In order to determine the threshold concentration and the IC50 values of the AGE-inhibitory action of the test substances, the dimer formation is plotted semi-logarithmically against the test concentration of the substance and the above-mentioned parameters are calculated.
Take `COc1ccc(C(c2c(O)cc(/C=C/c3ccc(O)c(O)c3)oc2=O)c2c(O)cc(/C=C/c3ccc(O)c(O)c3)oc2=O)cc1O` [Example 3, 3,3'-(3-Hydroxy-4-methoxybenzylidene)bis[6-[2-(3,4-dihydroxyphenyl)vinyl]-4-hydroxy-2H-pyran-2-one]]: the pIC50 (commonly the IC50 on a negative log10 scale, so that one unit is a factor of ten) was 5.70 and the Threshold concentration was > 1 µmol/L.

With `CC(C)(C)c1cc(C(c2c(O)cc(/C=C/c3ccc(O)c(O)c3)oc2=O)c2c(O)cc(/C=C/c3ccc(O)c(O)c3)oc2=O)cc(C(C)(C)C)c1O` [Example 4, 3,3'-(4-Hydroxy-3,5-(bis-1,1-dimethylethyl)benzylidene]bis[6-[2-(3,4-dihydroxyphenyl)vinyl]-4-hydroxy-2H-pyran-2-one]], the pIC50 is 5.70 and the Threshold concentration was > 1 µmol/L.

`N#Cc1ccc(C(c2c(O)cc(/C=C/c3ccc(O)c(O)c3)oc2=O)c2c(O)cc(/C=C/c3ccc(O)c(O)c3)oc2=O)cc1` [Example 8] had a pIC50 of 4.66 and a Threshold concentration of 10 µmol/L.

As for `O=c1oc(/C=C/c2ccc(O)c(O)c2)cc(O)c1C(c1ccc(Cl)cc1)c1c(O)cc(/C=C/c2ccc(O)c(O)c2)oc1=O` [Example 1, 3,3'-(4-Chlorobenzylidene)bis[6-[2-(3,4-dihydroxyphenyl)vinyl]-4-hydroxy-2H-pyran-2-one]], the pIC50 was 5.40 and the Threshold concentration is > 1 µmol/L.

With `O=c1oc(/C=C/c2ccc(O)c(O)c2)cc(O)c1C(c1ccc(O)c(O)c1)c1c(O)cc(/C=C/c2ccc(O)c(O)c2)oc1=O` [Example 7], the pIC50 is 5.40 and the Threshold concentration was determined as 2 µmol/L.

On to `COc1ccc(C(c2c(O)cc(/C=C/c3ccc(O)c(O)c3)oc2=O)c2c(O)cc(/C=C/c3ccc(O)c(O)c3)oc2=O)cc1OC` [Example 6], for which the pIC50 was 5.30 and the Threshold concentration was > 1 µmol/L.

With `COc1ccc(C(c2c(O)cc(/C=C/c3ccc(O)c(O)c3)oc2=O)c2c(O)cc(/C=C/c3ccc(O)c(O)c3)oc2=O)cc1` [Example 5], the pIC50 is 5.70 and the Threshold concentration was > 1 µmol/L.

Take `N=C(N)NN` [aminoguanidine, reference compound]: the pIC50 was 2.35 and the Threshold concentration amounted to 500 µmol/L.
